From patent publication US20230365537A1, “POLO LIKE KINASE 4 INHIBITORS” (ORIC Pharmaceuticals, Inc., priority 2021, published 2023)

Legend:
[1] = target: human recombinant Aurora B (Homo sapiens (Human), UniProt Q96GD4); test: Aurora B Kinase Biochemical Assay (ADP-Glo); conditions: ratio of Aurora B IC50 to PLK4 IC50 (selectivity)
Procedure, shortened: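 IC50 derived by four-parameter nonlinear fit of ADP-Glo luminescence (ADP produced). Compound was preincubated 15 min at RT with 20 nM recombinant human Aurora B, in 50 mM HEPES pH 7.5, 10 mM MgCl2, 1 mM EGTA, 1 mM DTT, 0.01% Brij-35/BSA.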

[2] = target: human recombinant Aurora A (Homo sapiens (Human), UniProt O14965); test: Aurora A Kinase Biochemical Assay (ADP-Glo); conditions: ratio of Aurora A IC50 to PLK4 IC50 (selectivity)
CHP-134 cells = test: CHP134 CellTiter-Glo (CTG) Assay; assay type: cell-based; conditions: Homo sapiens, CHP-134, 120 h, 5 days, viable cells by CellTiter-Glo
Method: Cells were seeded (200 cells/well) in 384-well plates for 16 hours. On day two, nine serial 1:3 compound dilutions were made in DMSO in a 96-well plate. The compounds were then further diluted into growth media using a BRAVO robot (Agilent, Santa Clara, CA). The diluted compounds were then added to quadruplicate wells in the 384-well cell plate and incubated at 37° C. and 5% CO2. After 5 days, relative numbers of viable cells were measured by luminescence using CellTiter-Glo® (Promega) according to the manufacturer’s instructions and read on a SPARK Multimode Microplate Reader (Tecan, Mannedorf Switzerland). The IC50 calculations for the values reported in Table 2 were carried out using Prism 6.0 software (GraphPad, San Diego).

human recombinant PLK4 = human recombinant PLK4 (Homo sapiens (Human), UniProt O00444); test: PLK4 Biochemical Assay (ADP-Glo); conditions: 0.5 nM PLK4, 8.0 µM ATP, 4.7 µM MBP, 6 hours at RT
Procedure, shortened: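 Luminescent ADP-Glo detection quantified ADP production, with ATP depletion for 40 min and detection for 30 min at room temperature. Compound and PLK4 (1.0 nM stock addition) were preincubated 15 min in HEPES pH 7.5 buffer containing MgCl2, EGTA, DTT, Brij-35 and BSA. IC50 values were obtained by four-parameter nonlinear regression.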

Chain of human recombinant Aurora A (O14965 whole entry): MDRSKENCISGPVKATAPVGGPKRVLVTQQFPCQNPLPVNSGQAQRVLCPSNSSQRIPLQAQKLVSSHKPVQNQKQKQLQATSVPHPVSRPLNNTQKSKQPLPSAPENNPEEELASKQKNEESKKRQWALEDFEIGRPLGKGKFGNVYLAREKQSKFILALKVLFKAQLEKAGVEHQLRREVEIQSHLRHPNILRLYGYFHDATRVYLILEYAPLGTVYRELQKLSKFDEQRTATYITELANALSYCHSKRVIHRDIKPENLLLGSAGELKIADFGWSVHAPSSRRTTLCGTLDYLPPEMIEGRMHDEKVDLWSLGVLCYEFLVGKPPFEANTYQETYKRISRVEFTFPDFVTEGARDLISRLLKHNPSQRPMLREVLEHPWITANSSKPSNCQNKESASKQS
Chain of human recombinant PLK4 (O00444 whole entry): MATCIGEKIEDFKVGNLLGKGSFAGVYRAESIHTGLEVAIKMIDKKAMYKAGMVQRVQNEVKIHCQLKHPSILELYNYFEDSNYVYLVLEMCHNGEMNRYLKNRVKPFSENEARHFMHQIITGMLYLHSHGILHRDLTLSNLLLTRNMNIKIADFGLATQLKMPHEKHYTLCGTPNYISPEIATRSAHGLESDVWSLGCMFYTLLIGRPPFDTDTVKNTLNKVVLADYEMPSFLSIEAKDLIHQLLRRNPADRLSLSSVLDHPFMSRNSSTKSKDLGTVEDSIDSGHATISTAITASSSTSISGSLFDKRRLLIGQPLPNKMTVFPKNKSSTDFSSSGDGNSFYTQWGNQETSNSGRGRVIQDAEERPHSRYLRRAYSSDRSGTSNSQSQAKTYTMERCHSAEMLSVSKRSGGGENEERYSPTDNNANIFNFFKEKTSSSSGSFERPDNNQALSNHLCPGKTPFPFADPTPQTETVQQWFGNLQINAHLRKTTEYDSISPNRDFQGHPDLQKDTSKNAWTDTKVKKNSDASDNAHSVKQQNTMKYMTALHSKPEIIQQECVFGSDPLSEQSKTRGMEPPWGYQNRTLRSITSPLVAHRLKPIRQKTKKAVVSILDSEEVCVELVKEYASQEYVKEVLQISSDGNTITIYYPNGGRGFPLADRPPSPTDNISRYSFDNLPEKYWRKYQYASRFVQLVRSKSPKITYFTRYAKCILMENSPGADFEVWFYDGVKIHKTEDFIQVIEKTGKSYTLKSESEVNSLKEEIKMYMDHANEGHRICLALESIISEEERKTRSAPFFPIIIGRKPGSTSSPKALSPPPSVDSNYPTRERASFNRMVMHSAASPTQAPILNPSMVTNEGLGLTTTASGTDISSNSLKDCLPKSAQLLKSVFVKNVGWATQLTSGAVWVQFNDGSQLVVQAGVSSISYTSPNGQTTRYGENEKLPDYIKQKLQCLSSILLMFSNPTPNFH
Chain of human recombinant Aurora B (Q96GD4 whole entry): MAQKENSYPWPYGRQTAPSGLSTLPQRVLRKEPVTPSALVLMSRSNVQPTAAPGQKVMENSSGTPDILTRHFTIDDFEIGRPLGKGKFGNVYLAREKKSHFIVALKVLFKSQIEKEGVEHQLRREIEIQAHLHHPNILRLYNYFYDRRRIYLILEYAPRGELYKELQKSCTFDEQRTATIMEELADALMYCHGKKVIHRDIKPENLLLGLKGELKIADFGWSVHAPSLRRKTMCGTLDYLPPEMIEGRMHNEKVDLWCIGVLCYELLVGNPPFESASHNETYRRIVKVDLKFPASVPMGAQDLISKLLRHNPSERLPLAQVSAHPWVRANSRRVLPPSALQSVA

COc1ccc2c(c1)[C@]1(C[C@H]1c1ccc3c(Nc4nc(C(C)C)nc(N5CCS(=O)(=O)CC5)c4Cl)n[nH]c3c1)C(=O)N2 [Example 78, (1R,2S)-2-(3-((5-chloro-6-(1,1-dioxidothiomorpholino)-2-isopropylpyrimidin4-yl)amino)-1H-indazol-6-yl)-5′-methoxyspiro[cyclopropane-1,3′-indolin]-2′-one]
[Aurora B IC50 (nM)]/[PLK4 IC50 (nM)] [1]: 1778.857
[Aurora A IC50 (nM)]/[PLK4 IC50 (nM)] [2]: 5660
IC50 (CHP-134 cells): 61.4 nM
IC50 (human recombinant PLK4): 0.35 nM

CNC(=O)c1ccc(OC)c(Nc2n[nH]c3cc([C@@H]4C[C@@]45C(=O)Nc4ccc(OC)cc45)ccc23)c1 [Example 177, 4-methoxy-3-({6-[(1R,2S)-5′-methoxy-2′-oxo-1′,2′-dihydrospiro[cyclopropane-1,3′-indol]-2-yl]-1H-indazol-3-yl}amino)-N-methylbenzamide]
[Aurora B IC50 (nM)]/[PLK4 IC50 (nM)] [1]: 11750.8813
[Aurora A IC50 (nM)]/[PLK4 IC50 (nM)] [2]: 11750.8813
IC50 (CHP-134 cells): 3680 nM
IC50 (human recombinant PLK4): 4.25 nM

COc1ccc2c(c1)[C@]1(C[C@H]1c1ccc3c(Nc4ccc(C(=O)N5CC(F)(F)C5)nc4OC)n[nH]c3c1)C(=O)N2 [Example 184, (1R,2S)-2-(3-{[6-(3,3-difluoroazetidine-1-carbonyl)-2-methoxypyridin-3-yl]amino}-1H-indazol-6-yl)-5′-methoxyspiro[cyclopropane-1,3′-indol]-2′(1′H)-one]
[Aurora B IC50 (nM)]/[PLK4 IC50 (nM)] [1]: 7144.8985
[Aurora A IC50 (nM)]/[PLK4 IC50 (nM)] [2]: 7144.8985
IC50 (CHP-134 cells): 882 nM
IC50 (human recombinant PLK4): 7 nM

COc1ccc2c(c1)[C@]1(C[C@H]1c1ccc3c(Nc4cc(C5CC5)nn4C)n[nH]c3c1)C(=O)N2 [Example 91, (1R,2S)-2-{3-[(3-cyclopropyl-1-methyl-1H-pyrazol-5-yl)amino]-1H-indazol-6-yl}-5′-methoxyspiro[cyclopropane-1,3′-indol]-2′(1′H)-one]
[Aurora B IC50 (nM)]/[PLK4 IC50 (nM)] [1]: 79.87
[Aurora A IC50 (nM)]/[PLK4 IC50 (nM)] [2]: 436.427
IC50 (CHP-134 cells): 3200 nM
IC50 (human recombinant PLK4): 4.02 nM

COc1ccc2c(c1)[C@]1(C[C@H]1c1ccc3c(Nc4nc(C5CC5)nc(N5CC(O)C5)c4Cl)n[nH]c3c1)C(=O)N2 [Example 76, (1R,2S)-2-(3-{[5-chloro-2-cyclopropyl-6-(3-hydroxyazetidin-1-yl)pyrimidin-4-yl]amino)-1H-indazol-6-yl)-5′-methoxyspiro[cyclopropane-1,3′-indol]-2′(1′H)-one]
[Aurora B IC50 (nM)]/[PLK4 IC50 (nM)] [1]: 535.4839
[Aurora A IC50 (nM)]/[PLK4 IC50 (nM)] [2]: 3304.147
IC50 (CHP-134 cells): 93.5 nM
IC50 (human recombinant PLK4): 0.434 nM

COc1ccc2c(c1)[C@]1(C[C@H]1c1ccc3c(Nc4cc(C)c(C(=O)N(C)C)nc4OC)n[nH]c3c1)C(=O)N2 [Example 238, 6-methoxy-5-({6-[(1R,2S)-5′-methoxy-2′-oxo-1′,2′-dihydrospiro[cyclopropane-1,3′-indol]-2-yl]-1H-indazol-3-yl}amino)-N,N,3-trimethylpyridine-2-carboxamide]
[Aurora B IC50 (nM)]/[PLK4 IC50 (nM)] [1]: 582.2189
[Aurora A IC50 (nM)]/[PLK4 IC50 (nM)] [2]: 536.1
IC50 (CHP-134 cells): 133 nM
IC50 (human recombinant PLK4): 1.36 nM

COc1ccc2c(c1)[C@]1(C[C@H]1c1ccc3c(Nc4nc(C5CC5)nc(N5CC(O)C5)c4OC)n[nH]c3c1)C(=O)N2.O=C(O)C(F)(F)F [Example 81, (1R,2S)-2-(3-{[2-cyclopropyl-6-(3-hydroxyazetidin-1-yl)-5-methoxypyrimidin-4-yl]amino}-1H-indazol-6-yl)-5′-methoxyspiro[cyclopropane-1,3′-indol]-2′(1′H)-one]
[Aurora B IC50 (nM)]/[PLK4 IC50 (nM)] [1]: 220.4239
[Aurora A IC50 (nM)]/[PLK4 IC50 (nM)] [2]: 1478.393
IC50 (CHP-134 cells): 965 nM
IC50 (human recombinant PLK4): 3.63 nM

COc1ccc2c(c1)[C@]1(C[C@H]1c1ccc3c(Nc4nn(C)c(=O)cc4OC)n[nH]c3c1)C(=O)N2 [Example 233, (1R,2S)-5′-methoxy-2-{3-[(4-methoxy-1-methyl-6-oxo-1,6-dihydropyridazin-3-yl)amino]-1H-indazol-6-yl)spiro[cyclopropane-1,3′-indol]-2′(1′H)-one]
[Aurora B IC50 (nM)]/[PLK4 IC50 (nM)] [1]: 107.2788
[Aurora A IC50 (nM)]/[PLK4 IC50 (nM)] [2]: 332.3068
IC50 (CHP-134 cells): 4800 nM
IC50 (human recombinant PLK4): 3.57 nM

COc1ccc2c(c1)[C@]1(C[C@H]1c1ccc3c(Nc4nc(C(C)C)ncc4OC)n[nH]c3c1)C(=O)N2 [Example 125, (1R,2S)-5′-methoxy-2-(3-{[5-methoxy-2-(propan-2-yl)pyrimidin-4-yl]amino}-1H-indazol-6-yl)spiro[cyclopropane-1,3′-indol]-2′(1′H)-one]
[Aurora B IC50 (nM)]/[PLK4 IC50 (nM)] [1]: 495.7388
[Aurora A IC50 (nM)]/[PLK4 IC50 (nM)] [2]: 1323.9707
IC50 (CHP-134 cells): 160 nM
IC50 (human recombinant PLK4): 0.833 nM

COc1ccc2c(c1)[C@]1(C[C@H]1c1ccc3c(Nc4ccc(C(=O)N5[C@H](C)CCC[C@@H]5C)nc4OC)n[nH]c3c1)C(=O)N2 [Example 245, (1R,2S)-2-[3-({6-[(2R,6S)-2,6-dimethylpiperidine-1-carbonyl]-2-methoxypyridin-3-yl}amino)-1H-indazol-6-yl]-5′-methoxyspiro[cyclopropane-1,3′-indol]-2′(1′H)-one]
[Aurora B IC50 (nM)]/[PLK4 IC50 (nM)] [1]: 319.6476
[Aurora A IC50 (nM)]/[PLK4 IC50 (nM)] [2]: 1730.3523
IC50 (CHP-134 cells): 131 nM
IC50 (human recombinant PLK4): 0.738 nM

COc1ccc2c(c1)[C@]1(C[C@H]1c1ccc3c(Nc4nc(C)cnc4OC)n[nH]c3c1)C(=O)N2 [Example 71, (1R,2S)-5′-methoxy-2-{3-[(3-methoxy-6-methylpyrazin-2-yl)amino]-1H-indazol-6-yl}spiro[cyclopropane-1,3′-indol]-2′(1′H)-one]
[Aurora B IC50 (nM)]/[PLK4 IC50 (nM)] [1]: 38.67
[Aurora A IC50 (nM)]/[PLK4 IC50 (nM)] [2]: 420.9667
IC50 (CHP-134 cells): 989 nM
IC50 (human recombinant PLK4): 3.06 nM

COc1ccc2c(c1)[C@]1(C[C@H]1c1cc(F)c3c(Nc4nc(SC)ncc4OC)n[nH]c3c1)C(=O)N2 [Example 186, (1R,2S)-2-(4-fluoro-3-{[5-methoxy-2-(methylsulfanyl)pyrimidin-4-yl]amino}-1H-indazol-6-yl)-5′-methoxyspiro[cyclopropane-1,3′-indol]-2′(1′H)-one]
[Aurora B IC50 (nM)]/[PLK4 IC50 (nM)] [1]: 232.5464
[Aurora A IC50 (nM)]/[PLK4 IC50 (nM)] [2]: 641.9337
IC50 (CHP-134 cells): 537 nM
IC50 (human recombinant PLK4): 1.78 nM

COc1ccc2c(c1)[C@]1(C[C@H]1c1ccc3c(Nc4cc(C(=O)N(C)C)ccc4OC)n[nH]c3c1)C(=O)N2 [Example 176, 4-methoxy-3-({6-[(1R,2S)-5′-methoxy-2′-oxo-1′,2′-dihydrospiro[cyclopropane-1,3′-indol]-2-yl]-1H-indazol-3-yl}amino)-N,N-dimethylbenzamide]
[Aurora B IC50 (nM)]/[PLK4 IC50 (nM)] [1]: 1300.3869
[Aurora A IC50 (nM)]/[PLK4 IC50 (nM)] [2]: 1725.2902
IC50 (CHP-134 cells): 1550 nM
IC50 (human recombinant PLK4): 2.84 nM

COc1ccc2c(c1)[C@]1(C[C@H]1c1ccc3c(Nc4ncc(S(=O)(=O)N(C)C5(C)COC5)cc4OC)n[nH]c3c1)C(=O)N2 [Example 270, 5-methoxy-6-({6-[(1R,2S)-5′-methoxy-2′-oxo-1′,2′-dihydrospiro[cyclopropane-1,3′-indol]-2-yl]-1H-indazol-3-yl}amino)-N-methyl-N-(3-methyloxetan-3-yl)pyridine-3-sulfonamide]
[Aurora B IC50 (nM)]/[PLK4 IC50 (nM)] [1]: 1790.7801
[Aurora A IC50 (nM)]/[PLK4 IC50 (nM)] [2]: 473.6
IC50 (CHP-134 cells): 269 nM
IC50 (human recombinant PLK4): 0.564 nM

COc1ccc2c(c1)[C@]1(C[C@H]1c1ccc3c(Nc4nc(C5CC5)nc(N5CCS(=O)(=O)CC5)c4OC)n[nH]c3c1)C(=O)N2 [Example 69, 4-[2-cyclopropyl-5-methoxy-6-({6-[(1R,2S)-5′-methoxy-2′-oxo-1’,2′-dihydrospiro[cyclopropane-1,3′-indol]-2-yl]-1H-indazol-3-yl}amino)pyrimidin-4-yl]-1λ6-thiomorpholine-1,1-dione]
[Aurora B IC50 (nM)]/[PLK4 IC50 (nM)] [1]: 480.7112
[Aurora A IC50 (nM)]/[PLK4 IC50 (nM)] [2]: 1785.978
IC50 (CHP-134 cells): 686 nM
IC50 (human recombinant PLK4): 2.98 nM

COc1ccc2c(c1)[C@]1(C[C@H]1c1ccc3c(Nc4ncnc(N5CC(O)C5)c4Cl)n[nH]c3c1)C(=O)N2 [Example 46, (1R,2S)-2-(3-{[5-chloro-6-(3-hydroxyazetidin-1-yl)pyrimidin4-yl]amino}-1H-indazol-6-yl)-5′-methoxyspiro[cyclopropane-1,3′-indol]-2′(1′H)-one]
[Aurora B IC50 (nM)]/[PLK4 IC50 (nM)] [1]: 135.8985
[Aurora A IC50 (nM)]/[PLK4 IC50 (nM)] [2]: 2542.642
IC50 (CHP-134 cells): 1430 nM
IC50 (human recombinant PLK4): 2.52 nM

COc1ccc2c(c1)[C@]1(C[C@H]1c1ccc3c(Nc4ccc(C(=O)N5CCOCC5)cc4OC)n[nH]c3c1)C(=O)N2 [Example 199, (1R,2S)-5′-methoxy-2-{3-[2-methoxy-4-(morpholine-4-carbonyl)anilino]-1H-indazol-6-yl}spiro[cyclopropane-1,3′-indol]-2′(1′H)-one]
[Aurora B IC50 (nM)]/[PLK4 IC50 (nM)] [1]: 57.7095
[Aurora A IC50 (nM)]/[PLK4 IC50 (nM)] [2]: 439.9441
IC50 (CHP-134 cells): 108 nM
IC50 (human recombinant PLK4): 0.716 nM
